Measurements from patent US8357832B2, “F1B-TMIR plasmid vector and transgenic mouse” (National Health Research Institutes, priority 2009, dated 2013).

Legend:
[1] = tested on: F1B-TMIR transfected CHO cells; assay: Luciferase activity assay after GCV treatment (sensitivity to GCV, functioning HSV1Δtk); format: cell-based, Chinese hamster; conditions: low or high concentration of GCV (0.005 or 0.1 μg/ml), 72 h, normalized to β-gal
Method: FIG. 1. (A) Structure of the F1B-TMIR transgenic vector. The restriction sites mentioned in the construction method are shown. (B) Fluorescent pictures of CHO cells transiently transfected by F1B-TMIR vector. Scale bar=100 μm. (C) The luciferase activity in F1B-TMIR transfected CHO cells following the incubation with GCV. The data shown were the luciferase activity normalized to the β-gal activity from a co-transfected RSV-β-gal vector. Error bars represent mean+SEM, n=3, *P<0.05, compared to the untreated group.
Chinese hamster ovary […] (CHO-K1) were maintained in F-12 medium supplemented with 10% fetal bovine serum (FBS) and the antibiotics penicillin, streptomycin, and amophotericin B (PSA) in a 95% air and 5% CO2 humidified incubator. DNA vectors including a RSV β-galactosidase control vector for normalization of transfection efficiency were transfected into the cells using PolyFect (Qiagen) reagent by following manufacturer's protocol. […]
The TMIR vectors driven by CMV or F1B promoter were constructed as foregoing description. […] There was a decrease in the number of cells expressing GFP and in the intensity of fluorescence in F1B-TMIR transfected cells than cells transfected by CMV-TMIR (FIG. 1B) as a result of weaker transactivity by FIB promoter. […]

[2] = tested on: CMV-TMIR transfected CHO cells; assay: as above; format: cell-based, Chinese hamster; conditions: low or high concentration of GCV (0.005 or 0.1 μg/ml), 72 h, normalized to β-gal
[3] = tested on: MDA-MB231 cells that constitutively express large amount of eGFP-tk; conditions: cited from earlier work
[4] = tested on: ZR75-1 cells that constitutively express low amount of eGFP-tk; conditions: cited from earlier work
[5] = tested on: TMIR expressing tissues (HSV1Δtk) of F1B-TMIR mice; assay: [131I]FIAU γ-camera imaging of F1B-TMIR transgenic mice; format: in vivo, mouse
Text: FIG. 4. […] Image of young female mice #7, #29 (Right) was shown for comparison.
Carrier-free [^131I] (2′-fluoro-2′-deoxy-1-β-D-arabinofuranosyl-5-iodouracil) ([^131I]FIAU) was synthesized from 5-trimethylstannyl-1-(2′-deoxy-2′-fluoro-1-β-D-arabinofuranosyl)-uracil (FTAU) by an oxidative iododestannylation method as previously described (Deng W P, Yang W K, Lai W F, et al. Non-invasive in vivo imaging with radiolabelled FIAU for monitoring cancer gene therapy using herpes simplex virus type 1 thymidine kinase and ganciclovir. Eur J Nucl Med Mol Imaging. January 2004; 31 (1):99-109). The radiochemical purity of [^131I]FIAU was >95%, as determined by thin layer chromatograph (TLC) method on a silica gel coated aluminum sheet using ethyl acetate-ethanol mixture (90:10, v/v) as the mobile phase. A Siemens E.CAM dual-head γ-camera, equipped with custom-made 1 mm pinhole collimator, was used for the animal γ-imaging. To block the thyroid uptake of radioiodine, mice were injected with sodium iodine saline (0.9% sodium iodine in normal saline, 1 ml/animal) 15 min prior to the intraperitoneal injection of 11.1 MBq [^131I] FIAU. The animal was laid in the prone position and 4 cm distant from the pinhole center to provide a full coverage of the body. […] The image was scanned one week after injection of probe to ensure adequate clearance of unwanted background radioactivity. […]

In the case of `Nc1nc(O)c2ncn(COC(CO)CO)c2n1` [GCV, Ganciclovir], the “loss of luciferase activity” value [1] is listed as 35%, the “loss of luciferase activity” value [2] is listed as 45% and the “ED50 (the dose resulted in 50% of cell death after 7 days)” value [3] is listed as 5 ng/mL. The “ED50 (the dose resulted in 50% of cell death after 7 days)” value [4] was “around 0.1 μg/ml”.

In the case of `O=c1[nH]c(=O)n([C@@H]2O[C@H](CO)[C@@H](O)[C@@H]2F)cc1[131I]` [[^131I]FIAU, [^131I] (2′-fluoro-2′-deoxy-1-β-D-arabinofuranosyl-5-iodouracil)], the “uptake at head (γ imaging)” value ([5]; F1B-TMIR mice #2, #7, #29, one week after probe injection) is reported as “low uptake” and the “uptake in testis (γ imaging)” value ([5]; male F1B-TMIR mice, one week after intraperitoneal injection of 11.1 MBq probe, absent in female mice) is reported as “strong uptake”.
